Columns and labels:
IL-6R [1] = target: T1, IL-6R (Homo sapiens, UniProt P08887); conditions: cited from earlier work
T1 construct: host or cells: population pharmacokinetic models of patients (Frey et al. 2010; Gibiansky and Frey 2012)
T1 sequence (P08887 20-468): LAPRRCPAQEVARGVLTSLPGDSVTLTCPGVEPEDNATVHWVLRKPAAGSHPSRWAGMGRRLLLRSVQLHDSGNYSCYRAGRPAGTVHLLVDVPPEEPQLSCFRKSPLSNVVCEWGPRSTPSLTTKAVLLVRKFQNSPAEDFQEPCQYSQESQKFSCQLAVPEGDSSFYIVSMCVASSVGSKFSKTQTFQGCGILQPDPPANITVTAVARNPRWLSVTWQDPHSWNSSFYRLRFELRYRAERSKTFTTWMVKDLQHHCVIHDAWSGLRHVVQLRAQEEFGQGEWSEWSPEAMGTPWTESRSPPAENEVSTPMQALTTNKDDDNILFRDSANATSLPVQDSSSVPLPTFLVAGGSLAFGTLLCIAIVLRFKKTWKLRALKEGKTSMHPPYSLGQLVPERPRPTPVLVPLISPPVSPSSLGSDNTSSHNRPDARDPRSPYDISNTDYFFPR

[2] = Simulation of serum Tocilizumab concentration with population pharmacokinetic models (Frey et al.; Gibiansky et al.); conditions: set from the Frey and Gibiansky models
Method: (§1) FIG. 5A is a simulation of changes in serum Tocilizumab concentration when Tocilizumab is administered at 8 mg/kg (intravenous administration: IV) on Day 0, based on the population pharmacokinetic model reported in the article by Frey et al. The vertical axis represents the serum Tocilizumab concentration (μg/mL), and the horizontal axis represents the number of days after administration of Tocilizumab.
as §1, with “5B” for “5A”, “(IV)” for “(intravenous administration: IV)”, “Gibiansky” for “Frey”
FIG. 6A is a simulation of changes in serum Tocilizumab concentration when Tocilizumab is intravenously administered (IV) at 8 mg/kg on Day 0, based on the population pharmacokinetic model reported in the article by Frey et al. The vertical axis represents the serum Tocilizumab concentration (μg/mL), and the horizontal axis represents the number of days after administration of Tocilizumab. […]

IL-6R [3] = target: T1, IL-6R; experiment: Population pharmacokinetic model: Michaelis coefficient (Km) for target-mediated elimination of Tocilizumab; conditions: theoretical, from the Km value of Frey et al.
[4] = test system: patients who manifested CRS after ERY974 administration; experiment: ERY101EG study: use of Tocilizumab for the treatment of CRS; format: in vivo, human
Method: In the ERY101EG study, Tocilizumab was used alone or in combination with a steroid and such for the treatment of CRS in some patients at the discretion of the clinical trial investigator (Table 11). The severity of CRS ranged from Grade 1 to Grade 3. Tocilizumab was administered on the same day as the manifestation of CRS, with the exception of two patients, two cases (cohort 10A, 840010006, 840010007). In all of the Tocilizumab-administered cases, CRS recovered four days after the day of Tocilizumab administration.

Substance: Tocilizumab: humanized immunoglobulin G1 (IgG1) kappa anti-human IL-6R monoclonal antibody
- Michaelis coefficient (Km) for target-mediated elimination (IL-6R [1]; article by Frey et al., patients with rheumatoid arthritis): 2.7 µg/mL
- Michaelis coefficient (Km value) (IL-6R [1]; article by Gibiansky et al.): 0.367 µg/mL
- Estimated effective serum concentration (target concentration) of Tocilizumab [2]: 10 µg/mL
- Serum concentration of Tocilizumab required for binding to 80% or more of IL-6R (IL-6R [3]): ≥ 10800 ng/mL
- Recovery from CRS after the day of Tocilizumab administration ([4]; all Tocilizumab-administered cases, CRS Grade 1 to Grade 3, alone or with a steroid): four
- Duration from Tocilizumab administration to recovery from CRS ([4]; patient 840010006, cohort 10A, CRS Grade 3 after 2nd ERY974 (0.81 μg/kg), Tocilizumab 8 mg/kg, 3 days after CRS manifestation): 4 days
- Duration from Tocilizumab administration to recovery from CRS ([4]; patient 840010006, cohort 10A, CRS Grade 3 after 3rd ERY974 (0.54 μg/kg), Tocilizumab 8 mg/kg, same day as CRS manifestation): 3 days
- Manifestation of CRS after Tocilizumab administration and until the next administration of this agent ([4]; patient 840010006, cohort 10A, after 2nd ERY974 (0.81 μg/kg), Tocilizumab 8 mg/kg): None
- Presence or absence of CRS recurrence ([4]; patient 840010006, cohort 10A, 1 further ERY974 administration (0.54 μg/kg) after Tocilizumab 8 mg/kg): Present
- Duration from Tocilizumab administration to recovery from CRS ([4]; patient 840010007, cohort 10A, CRS Grade 2, Tocilizumab 8 mg/kg, 6 days after CRS manifestation): 1 days
- Presence or absence of CRS recurrence ([4]; patient 840010007, cohort 10A, 2 further ERY974 administrations (0.54, 0.81 μg/kg) after Tocilizumab 8 mg/kg): Absent
- Manifestation of CRS after Tocilizumab administration and until the next administration of this agent ([4]; patient 840010007, cohort 10A, Tocilizumab 8 mg/kg): None
- Duration from Tocilizumab administration to recovery from CRS ([4]; patient 840020017, cohort 8A, CRS Grade 2, Tocilizumab dose not known, same day as CRS manifestation): 0 days
- Presence or absence of CRS recurrence ([4]; patient 840020017, cohort 8A, 3 further ERY974 administrations (0.36 μg/kg) after Tocilizumab): Absent
- Manifestation of CRS after Tocilizumab administration and until the next administration of this agent ([4]; patient 840020017, cohort 8A, Tocilizumab dose not known): None
- Duration from Tocilizumab administration to recovery from CRS ([4]; patient 840020021, cohort 9A, CRS Grade 1, Tocilizumab 4 mg/kg, same day as CRS manifestation): 0 days
- Presence or absence of CRS recurrence ([4]; patient 840020021, cohort 9A, 9 further ERY974 administrations (0.54 μg/kg) after Tocilizumab 4 mg/kg): Absent
- Manifestation of CRS after Tocilizumab administration and until the next administration of this agent ([4]; patient 840020021, cohort 9A, Tocilizumab 4 mg/kg): None
- Duration from Tocilizumab administration to recovery from CRS ([4]; patient 840020022, cohort 9A, CRS Grade 2, Tocilizumab 4 mg/kg, within 2 hours from CRS manifestation): 0 days
- Presence or absence of CRS recurrence ([4]; patient 840020022, cohort 9A, 3 further ERY974 administrations (0.54 μg/kg) after Tocilizumab 4 mg/kg): Absent
- Manifestation of CRS after Tocilizumab administration and until the next administration of this agent ([4]; patient 840020022, cohort 9A, Tocilizumab 4 mg/kg): None
- Duration from Tocilizumab administration to recovery from CRS ([4]; patient 840020023, cohort 9B, CRS Grade 2, Tocilizumab 4 mg/kg, same day as CRS manifestation): 0 days
- Presence or absence of CRS recurrence ([4]; patient 840020023, cohort 9B, 19 further ERY974 administrations (0.54 μg/kg) after Tocilizumab 4 mg/kg): Absent
- Manifestation of CRS after Tocilizumab administration and until the next administration of this agent ([4]; patient 840020023, cohort 9B, Tocilizumab 4 mg/kg): None
- Duration from Tocilizumab administration to recovery from CRS ([4]; patient 840060002, cohort 8B, CRS Grade 2, Tocilizumab 8 mg/kg, same day as CRS manifestation): 2 days
- Presence or absence of CRS recurrence ([4]; patient 840060002, cohort 8B, 9 further ERY974 administrations (0.36 μg/kg) after Tocilizumab 8 mg/kg): Absent
- Manifestation of CRS after Tocilizumab administration and until the next administration of this agent ([4]; patient 840060002, cohort 8B, Tocilizumab 8 mg/kg): None

Reference: patent publication US20220348658A1, “ANTI-T CELL ANTIGEN-BINDING MOLECULE TO BE USED IN COMBINATION WITH CYTOKINE INHIBITOR” (Chugai Seiyaku Kabushiki Kaisha, priority 2019, published 2022)
